Measured values reported in US20170280720A1, “ARGININE […] INHIBITORS AND USES THEREOF” (EPIZYME, INC., priority 2014, published 2017).

Columns and labels:
Human CARM1 (PRMT4) = target: T1, Human CARM1 (PRMT4) (Homo sapiens, UniProt Q86X55); experiment: CARM1 biochemical assay (3H-SAM Flashplate, peptide substrate); details: read-out: CARM1_ IC50
T1 construct: Flag-CARM1-His; made in house; host or cells: HEK 293F cells (BacMam baculovirus, pFastBacMam)
T1 sequence (Q86X55 2-585 isoform Q86X55-1): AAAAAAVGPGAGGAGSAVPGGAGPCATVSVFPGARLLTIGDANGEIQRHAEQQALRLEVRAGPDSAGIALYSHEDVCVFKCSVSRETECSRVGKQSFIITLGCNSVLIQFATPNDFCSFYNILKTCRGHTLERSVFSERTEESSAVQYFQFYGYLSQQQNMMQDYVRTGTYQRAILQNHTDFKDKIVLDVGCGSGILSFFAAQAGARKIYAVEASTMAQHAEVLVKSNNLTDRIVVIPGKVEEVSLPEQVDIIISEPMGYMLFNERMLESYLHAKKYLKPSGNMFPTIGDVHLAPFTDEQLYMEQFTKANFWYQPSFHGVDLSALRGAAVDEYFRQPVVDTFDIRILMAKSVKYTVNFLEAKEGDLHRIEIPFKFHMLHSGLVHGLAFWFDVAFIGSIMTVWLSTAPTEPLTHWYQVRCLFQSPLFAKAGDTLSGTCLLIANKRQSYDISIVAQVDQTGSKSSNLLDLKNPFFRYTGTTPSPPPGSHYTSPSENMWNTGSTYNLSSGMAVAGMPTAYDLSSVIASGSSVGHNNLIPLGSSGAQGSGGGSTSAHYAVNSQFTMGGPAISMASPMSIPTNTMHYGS
In short: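 FLAG/His-tagged human CARM1 (isoform 1, Δ539-561, baculovirus-expressed), 0.25 nM, preincubated 30 min at room temperature with compound (2% DMSO) in 20 mM Bicine pH 7.6, then reacted with 30 nM 3H-SAM and 250 nM biotinylated H3 16-30 peptide (R26 monomethyl). Stopped with 300 uM cold SAM; labelled peptide captured on streptavidin Flashplate; % inhibition versus DMSO and 1 mM SAH controls fitted to a 4- or 3-parameter curve.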

PRMT5 = PRMT5 (Homo sapiens, UniProt O14744); experiment: PRMT5 IC50 (Table 2; no method described); assay type: biochemical; details: read-out: PRMT5_ IC50
Sequence of PRMT5 (O14744 whole entry, species assumed): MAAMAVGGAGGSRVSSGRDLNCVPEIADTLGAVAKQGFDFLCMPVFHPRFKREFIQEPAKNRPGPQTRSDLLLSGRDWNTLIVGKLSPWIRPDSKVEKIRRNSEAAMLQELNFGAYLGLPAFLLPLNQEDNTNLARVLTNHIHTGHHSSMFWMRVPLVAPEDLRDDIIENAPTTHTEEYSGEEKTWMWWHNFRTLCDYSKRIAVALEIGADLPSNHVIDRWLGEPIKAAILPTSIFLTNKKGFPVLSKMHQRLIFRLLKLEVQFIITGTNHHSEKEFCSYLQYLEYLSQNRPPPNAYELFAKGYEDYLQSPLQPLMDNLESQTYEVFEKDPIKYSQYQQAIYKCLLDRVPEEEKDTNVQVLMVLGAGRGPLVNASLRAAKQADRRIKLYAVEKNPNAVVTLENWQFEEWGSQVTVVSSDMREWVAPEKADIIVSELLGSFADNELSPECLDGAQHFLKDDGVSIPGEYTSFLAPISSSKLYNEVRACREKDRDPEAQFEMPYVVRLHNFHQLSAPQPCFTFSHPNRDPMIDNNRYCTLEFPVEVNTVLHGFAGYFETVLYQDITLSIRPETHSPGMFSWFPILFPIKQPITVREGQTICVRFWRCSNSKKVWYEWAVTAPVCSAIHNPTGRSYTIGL
Sequence of PRMT5 (Q9BQA1 whole entry partner, species assumed): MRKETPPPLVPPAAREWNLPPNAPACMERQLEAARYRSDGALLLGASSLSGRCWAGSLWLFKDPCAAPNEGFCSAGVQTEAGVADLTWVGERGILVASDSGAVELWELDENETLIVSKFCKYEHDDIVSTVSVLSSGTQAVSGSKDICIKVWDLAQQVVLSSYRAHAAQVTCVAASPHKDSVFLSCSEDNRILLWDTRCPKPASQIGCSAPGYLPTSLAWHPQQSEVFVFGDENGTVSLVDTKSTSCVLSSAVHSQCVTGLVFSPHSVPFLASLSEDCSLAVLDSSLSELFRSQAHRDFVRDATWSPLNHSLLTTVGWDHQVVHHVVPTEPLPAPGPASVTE

| SMILES | IC50 (Human CARM1 (PRMT4)) | IC50 (PRMT5) |
| --- | --- | --- |
| NCCNCc1ccc(-c2ccc3ncn(Cc4cccc(C(=O)Nc5ccccc5)c4)c3c2)cc1 [Compound 330] | 2720 nM | 52.4 nM |
| CN1CCCN(C(=O)c2cccc(Cn3cnc4ccc(-c5ccc(CNCCN)cc5)cc43)c2)CC1 [Compound 331] | 2810 nM | 118 nM |
| NCCNCc1ccc(-c2ccc3ncn(Cc4cccc(C(=O)NC5CCCC5)c4)c3c2)cc1 [Compound 332] | 2840 nM | 85.9 nM |
| CN1CCN(CCNC(=O)c2cccc(Cn3cnc4ccc(-c5ccc(CNCCN)cc5)cc43)c2)CC1 [Compound 333] | 3060 nM | 94.7 nM |
| NCCNCc1ccc(-c2ccc3cnn(Cc4cccc(Oc5ccccc5)c4)c3c2)cc1 [Compound 334] | 3130 nM | 467 nM |
| CN1CCN(C(=O)c2cccc(Cn3ncc4ccc(-c5ccc(CNCCN)cc5)cc43)c2)CC1 [Compound 335] | 3510 nM | 73.8 nM |
| NCCNCc1ccc(-c2ccc3ncn(CCc4cccc(Cl)c4)c3c2)cc1 [Compound 336] | 5120 nM | 66.5 nM |
| NCCNCc1ccc(-c2ccc3ncn(Cc4cccc(C(=O)NCc5ccccc5)c4)c3c2)cc1 [Compound 337] | 5350 nM | 33.3 nM |
| CN1CCCC(Cn2cnc3ccc(-c4ccc(CNCCN)cc4)cc32)C1 (stereo not shown) [Compound 338] | 5530 nM | 439 nM |
| COc1ccc(Cn2ncc3ccc(-c4ccc(CNCCN)cc4)cc32)cc1 [Compound 339] | 5680 nM | 135 nM |
| CS(=O)(=O)c1ccc(Cn2cnc3ccc(-c4ccc(CNCCN)cc4)cc32)cc1 [Compound 340] | 5940 nM | 105 nM |
| CN(C)C(=O)c1cccc(Cn2cnc3ccc(-c4ccc(CNCCN)cc4)cc32)c1 [Compound 341] | 6080 nM | 87.3 nM |
| NCCNCc1ccc(-c2ccc3ncn(Cc4cccc(C(=O)NC5CC5)c4)c3c2)cc1 [Compound 342] | 6480 nM | 110 nM |
| CC(=O)c1cccc(Cn2ncc3ccc(-c4ccc(CNCCN)cc4)cc32)c1 [Compound 343] | 8890 nM | 119 nM |
| N#Cc1ccc(Cn2cnc3ccc(-c4ccc(CNCCN)cc4)cc32)cc1 [Compound 344] | 8960 nM | 67.6 nM |
| COCCNC(=O)c1cccc(Cn2cnc3ccc(-c4ccc(CNCCN)cc4)cc32)c1 [Compound 345] | 9390 nM | 114 nM |
| CN(C(=O)c1cccc(Cn2cnc3ccc(-c4ccc(CNCCN)cc4)cc32)c1)C1CCCC1 [Compound 346] | 10000 nM | 116 nM |
| NCCNCc1ccc(-c2ccc3ncn(Cc4cccc(C(=O)NC5CCOCC5)c4)c3c2)cc1 [Compound 347] | 10000 nM | 181 nM |
| NCCNCc1ccc(-c2ccc3cnn(CC4CCNCC4)c3c2)cc1 [Compound 348] | 10000 nM | 435 nM |
| Cc1cc(C)c(CN2Cc3ccc(-c4ccc(CNCCN)cc4)cc3C2=O)c(=O)[nH]1 [Compound 390] | 17500 nM | 472 nM |
